Source: US8163909B2, “Substituted hydroxyethyl amine compounds as beta-secretase modulators and methods of use” (Amgen Inc., priority 2007, dated 2012)
Read-outs that look alike come from different tables or passages of the source.

Assays:
[1] = target: Beta Secretase enzyme (BACE) (Homo sapiens, UniProt P56817); experiment: In vitro enzymatic BACE FRET (fluorescence resonance energy transfer) assay; format: biochemical; conditions: read-out: BACE1 FRET assay;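 also: fluorescence read after 1 h with 50 nM quenched peptide substrate spanning the BACE cleavage site, in pH 4.2 acetate buffer containing 10% DMSO and nonionic detergent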
Sequence of Beta Secretase enzyme (BACE) (P56817 46-501): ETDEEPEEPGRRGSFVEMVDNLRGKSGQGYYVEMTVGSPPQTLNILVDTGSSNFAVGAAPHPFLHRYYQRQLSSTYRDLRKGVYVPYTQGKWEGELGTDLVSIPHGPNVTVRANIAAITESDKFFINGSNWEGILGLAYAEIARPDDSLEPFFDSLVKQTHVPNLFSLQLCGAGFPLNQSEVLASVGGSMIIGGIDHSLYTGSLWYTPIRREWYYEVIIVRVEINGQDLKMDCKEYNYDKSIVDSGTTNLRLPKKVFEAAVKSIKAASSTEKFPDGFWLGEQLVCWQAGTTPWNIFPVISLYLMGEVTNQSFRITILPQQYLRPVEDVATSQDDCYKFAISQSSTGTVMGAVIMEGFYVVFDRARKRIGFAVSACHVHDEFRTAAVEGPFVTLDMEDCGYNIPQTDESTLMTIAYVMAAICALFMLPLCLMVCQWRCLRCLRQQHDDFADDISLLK

[2] = tested on: Aβ40 in conditioned medium of cells stably expressing Amyloid Precursor Protein (APP); experiment: In vitro BACE cell-based assay (Aβ40 in conditioned medium, sandwich ELISA); conditions: Homo sapiens, read-out: HEK cell assay;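 also: compounds added as a dilution series, secreted peptide quantified by europium time-resolved fluorescence readout, potency fitted from percent of control versus compound concentration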
CYP3A4 (CYP3A) = CYP3A4 (CYP3A) (Homo sapiens, UniProt P08684); experiment: in vitro; conditions: microsomes, pH 7.4;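 also: inhibition of CYP3A-mediated 1-hydroxymidazolam formation after 10 min incubation with NADPH, quantified by HPLC MS relative to metabolite produced without test compound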
Sequence of CYP3A4 (CYP3A) (P08684 2-503): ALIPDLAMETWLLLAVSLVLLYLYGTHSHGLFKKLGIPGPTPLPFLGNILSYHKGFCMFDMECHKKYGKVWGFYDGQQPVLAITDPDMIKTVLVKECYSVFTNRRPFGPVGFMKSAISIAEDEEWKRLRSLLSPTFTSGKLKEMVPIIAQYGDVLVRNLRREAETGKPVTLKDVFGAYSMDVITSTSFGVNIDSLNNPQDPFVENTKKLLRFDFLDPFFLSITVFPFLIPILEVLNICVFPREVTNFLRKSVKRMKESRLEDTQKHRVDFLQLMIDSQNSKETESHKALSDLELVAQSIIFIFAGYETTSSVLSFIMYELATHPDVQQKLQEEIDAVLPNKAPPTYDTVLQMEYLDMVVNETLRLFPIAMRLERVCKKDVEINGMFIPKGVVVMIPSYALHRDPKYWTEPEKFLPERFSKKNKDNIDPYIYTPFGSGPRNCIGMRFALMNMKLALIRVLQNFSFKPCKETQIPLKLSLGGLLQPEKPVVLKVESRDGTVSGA

[3] = Microsomal stability assay, rat liver microsomes;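 also: rat liver microsomes (0.25 mg/mL) with about 1 µM compound plus 1 mM NADPH, pH 7.4, 37 °C for 30 min, parent left measured by LC-MS/MS against 0 min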
[4] = Microsomal stability assay, human liver microsomes;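 also: pooled human liver microsomes at 0.25 mg/mL with 1 µM compound and NADPH at 37 °C, pH 7.4, for 30 min, unchanged parent quantified by LC-MS/MS against the 0 min sample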
CYP2D6 = CYP2D6 (Homo sapiens, UniProt P10635); experiment: CYP2D6 inhibition assay (bufuralol, pooled human liver microsomes)
Sequence of CYP2D6 (P10635 whole entry): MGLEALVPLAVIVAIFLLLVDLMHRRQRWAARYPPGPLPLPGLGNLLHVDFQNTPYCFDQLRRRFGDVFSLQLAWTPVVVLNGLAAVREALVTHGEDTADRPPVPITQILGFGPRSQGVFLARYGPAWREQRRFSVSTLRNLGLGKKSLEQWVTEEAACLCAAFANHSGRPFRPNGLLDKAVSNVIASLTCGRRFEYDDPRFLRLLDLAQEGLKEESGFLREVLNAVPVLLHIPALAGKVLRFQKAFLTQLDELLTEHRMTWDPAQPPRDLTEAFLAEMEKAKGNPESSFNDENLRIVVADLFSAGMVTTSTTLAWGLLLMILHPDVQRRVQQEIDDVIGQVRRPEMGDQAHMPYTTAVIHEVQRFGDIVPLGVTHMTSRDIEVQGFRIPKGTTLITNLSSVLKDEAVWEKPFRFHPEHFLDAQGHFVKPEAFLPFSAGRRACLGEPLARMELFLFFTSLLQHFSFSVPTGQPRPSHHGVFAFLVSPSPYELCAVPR

[5] = 2D6 IC50 (uM), CYP enzyme inhibition
[6] = HEK293, HEK cell-based assay IC50
[7] = 2D6 IC50 (uM), CYP2D6 inhibition

Row | Structure (SMILES) | IC50 ([1]; BACE enzyme assay, IC50's in uM) | IC50 ([2]; HEK293, HEK cell-based assay, IC50's in uM) | IC50 (CYP3A4 (CYP3A)) | RLM ([3]; rat liver microsomal data) | HLM ([4]; human liver microsomal data) | IC50 (CYP2D6; [5]) | IC50 ([1]; BACE enzyme assay) | IC50 ([2]; HEK293, HEK cells) | IC50 ([1]; Table 2) | IC50 ([2]; HEK293, Table 2, HEK cells) | IC50 (CYP2D6; 2D6 IC50, CYP enzyme inhibition) | IC50 ([1]; BACE enzyme assay IC50) | IC50 [2, 6] | RLM ([3]; rat liver microsomes) | HLM ([4]; human liver microsomes) | IC50 (CYP2D6; [7])
1 | CCOCC(=O)N[C@@H](Cc1ccc2c(c1)OCO2)[C@H](O)CN[C@H]1CC2(CCC2)Oc2ncc(CC(C)(C)C)cc21 [Example 772, N-((1S,2R)-1-(1,3-benzodioxol-5-ylmethyl)-3-(((4′S)-6′-(2,2-dimethylpropyl)-3′,4′-dihydrospiro[cyclobutane-1,2′-pyrano[2,3-b]pyridin]-4′-yl)amino)-2-hydroxypropyl)-2-ethoxyacetamide] | 0.021 µM | 0.042 µM | 200 nM | 112 µL/min/mg | 28 µL/min/mg | 1.1 µM |  |  |  |  |  |  |  |  |  | 
2 | COCC(=O)N[C@@H](Cc1cccc(F)c1)[C@H](O)CN[C@H]1CC2(CCC2)Oc2c(-c3ccncc3)cc(Cl)cc21 [compound 550] |  |  | 200 nM | 315 µL/min/mg | 338 µL/min/mg | 0.5 µM | 0.042 µM | 0.474 µM |  |  |  |  |  |  |  | 
3 | CC(=O)N[C@@H](Cc1cc(F)cc(F)c1)[C@H](O)CN[C@H]1CC2(CCC2)Oc2c1cc(CC(C)(C)C)nc2-c1cncs1 [compound 481] |  |  | 200 nM | 177 µL/min/mg | 155 µL/min/mg |  |  |  | 0.004 µM | 0.123 µM | 7.9 µM |  |  |  |  | 
4 | COCC(=O)N[C@@H](Cc1ccc(F)cc1)[C@H](O)CN[C@H]1CC2(CCC2)Oc2c1cc(CC(C)(C)C)nc2C#N [compound 493] |  |  | 600 nM | 221 µL/min/mg | 95 µL/min/mg | 11.6 µM | 0.044 µM | 0.471 µM |  |  |  |  |  |  |  | 
5 | COCC(=O)N[C@@H](Cc1cc(F)cc(F)c1)[C@H](O)CN[C@H]1CC2(CCC2)Oc2c1cc(CC(C)(C)C)nc2-n1ccnc1 [compound 494] |  |  | 200 nM | 63 µL/min/mg | 30 µL/min/mg | 1.2 µM | 0.02 µM | 0.072 µM |  |  |  |  |  |  |  | 
6 | CC(C)OCC(=O)N[C@@H](Cc1ccc(F)cc1)[C@H](O)CN[C@H]1CC2(CCC2)Oc2ncc(CC(C)(C)C)cc21 [compound 565] |  |  | 600 nM | 829 µL/min/mg | 921 µL/min/mg | 23.8 µM | 0.049 µM | 0.267 µM |  |  |  |  |  |  |  | 
7 | CO[C@H](C)C(=O)N[C@@H](Cc1cc(F)cc(-c2nccs2)c1)[C@H](O)CN[C@H]1CC2(CCC2)Oc2cnc(CC(C)(C)F)cc21 [compound 721, (2R)-N-((1S,2R)-3-(((4′S)-6′-(2-fluoro-2-methylpropyl)-3′,4′-dihydrospiro[cyclobutane-1,2′-pyrano[2,3-c]pyridin]-4′-yl)amino)-1-(3-fluoro-5-(1,3-thiazol-2-yl)benzyl)-2-hydroxypropyl)-2-methoxypropanamide] |  |  | 300 nM |  |  |  |  |  |  |  |  | 0.049 µM | 0.118 µM | 152 µL/min/mg | 111 µL/min/mg | 0.5 µM
8 | Cc1ccccc1CN1CCO[C@@H](C(=O)N[C@@H](Cc2ccc(F)cc2)[C@H](O)CN[C@H]2CC3(CCC3)Oc3ncc(CC(C)(C)C)cc32)C1 [compound 692] |  |  | 200 nM |  |  |  |  |  |  |  |  | 0.013 µM | 0.024 µM | 590 µL/min/mg | 706 µL/min/mg | 5.1 µM
9 | CC(=O)N[C@@H](Cc1ccc(F)c(-n2ccnc2)c1)[C@H](O)CN[C@H]1CC2(CCC2)Oc2ncc(CC(C)(C)C)cc21 [Example 426, N-((1S,2R)-3-(((4′S)-6′-(2,2-dimethylpropyl)-3′,4′-dihydrospiro[cyclobutane-1,2′-pyrano[2,3-b]pyridin]-4′-yl)amino)-1-(4-fluoro-3-(1H-imidazol-1-yl)benzyl)-2-hydroxypropyl)acetamide] |  |  | ≤ 30 nM |  |  |  |  |  |  |  |  | 0.031 µM | 0.011 µM | 14 µL/min/mg | 22 µL/min/mg | 0.1 µM
10 | COCC(=O)N[C@@H](Cc1ccc2c(c1)OCO2)[C@H](O)CN[C@H]1CC2(CCC2)Oc2ccc(C[C@H](C)F)cc21 [compound 557] |  |  | 300 nM | 344 µL/min/mg | 193 µL/min/mg | 0.5 µM | 3.79 µM | > 10 µM |  |  |  |  |  |  |  | 
